Assay results as given in patent publication US11673933B2, “Method for using insulin degludec for the improvement of glycemic control and reduction of acute and long-term diabetes complications” (Novo Nordisk A/S, priority 2016, dated 2023).

Tests used:
[1] = system: adult human subjects with type 2 diabetes at high risk for cardiovascular events; assay: Example 1 cardiovascular outcomes trial (DEVOTE), insulin degludec vs insulin glargine: SMPG and blood pressure variability; format: in vivo
Protocol: (§1) A long-term, multi-centre, multi-national, randomised, double-blind, parallel-group, active comparator-controlled trial with 7637 human subjects was carried out with treatment that would continue until at least 633 positively adjudicated primary cardiovascular events were accrued. This trial concerned incidence of cardiovascular events in adult human subjects with type 2 diabetes that were at high risk for cardiovascular events, including such subjects with existing cardiovascular disease. The primary objective of this trial was to confirm the cardiovascular safety of insulin degludec compared to that of insulin glargine. The secondary objective was to assess efficacy of insulin degludec on markers of glycaemic control and to assess safety on other parameters in subjects with type 2 diabetes that were at high risk for cardiovascular events.
Subjects were randomised 1:1 in a double-blinded manner to receive blinded insulin degludec or blinded insulin glargine, each added to standard of care. […] For subjects receiving premixed/biphasic insulin OD, the basal component was calculated and transferred unit-to-unit to investigational product OD. The bolus insulin component was calculated and transferred unit-to-unit to bolus insulin and given at the most appropriate meal at the investigator's discretion. For subjects receiving premixed/biphasic insulin twice daily (or more), the total basal component was calculated, reduced by 20-30% and transferred to investigational product OD; the bolus component was to be calculated and transferred to insulin aspart and dosed with the most appropriate meals at the investigator's discretion. […]
Subjects adjusted their basal insulin dose weekly, aiming for a pre-breakfast (fasting) SMPG value of 71-90 mg/dL (4.0-5.0 mmol/L) by using the algorithm in Table 6. The basal dose was adjusted based on the lowest of three pre-breakfast SMPG values, preferably measured two days prior to dose adjustment and on the day of the dose adjustment. […]

[2] = system: individuals with type 2 diabetes and established cardiovascular risk (MACE); assay: CV risk model based on the DEVOTE trial: MACE hazard ratio IDeg/IGlar by CV risk score and subgroup; format: in vivo, human
Protocol: as §1
The results of this trial may be presented herein as a number or fraction of subjects experiencing an event. Alternatively, the results of this trial may be presented with hazard ratios estimated in a Cox proportional hazard model, which is the standard statistical model used for estimating time to an event. The term “hazard ratio” (also referred to as “HR”) as used herein means the instantaneous risk ratio of experiencing an event when administered insulin degludec compared to insulin glargine which are the two treatments in this trial. An upper limit of the 95% confidence interval (CI) for the HR of less than 1.00 means that the estimated treatment ratio between insulin degludec and insulin glargine with respect to the event of interests is statistically significant in favour of insulin degludec on a 5% significance level. A 5% significance level is the standard level for investigating significance in clinical trials.
Based on the DEVOTE trial, a cardiovascular (CV) risk score has been developed for individuals with established cardiovascular risk. This risk score was developed using available medical history, baseline information and cardiovascular events occurring during the trial. […] The variables are listed in descending order according to their impact on the overall risk of major adverse cardiovascular events (MACE), here consisting of cardiovascular death, non-fatal myocardial infarction, or non-fatal stroke. The combination of these variables yields an algorithm that can be used to determine the risk of future MACEs and to determine the benefit of being treated with IDeg compared to IGlar.
The CV risk score and estimated MACE hazard ratio for CV risk scores by quartiles based on number of events are presented in FIG. 1. […] This benefit is seen regardless of which of the individual predictors contribute to the high score.
For example, subjects with a BMI ≥30 kg/m^2 and diastolic blood pressure ≥80 mmHg, and subjects with a diastolic blood pressure ≥80 mmHg who were treated with statins would have a benefit with IDeg compared to IGlar in terms of risk of MACE (Table 25).

[3] = system: human subjects with type 2 diabetes inadequately controlled with basal insulin and metformin; assay: Example 4: 26-week double-blind trial, IDegLira vs IDeg, both added to metformin
Protocol: (§2) A 26-week randomised, parallel two-arm, double-blind, multi-centre, multinational, treat-to-target trial in 413 human subjects with type 2 diabetes inadequately controlled with basal insulin and metformin with or without SU or glinides was carried out comparing the efficacy and safety of insulin degludec+liraglutide (Xultophy®, IDegLira) once daily with insulin degludec (Tresiba®, IDeg) once daily both added on to metformin. […] The secondary objective was to compare the overall efficacy and safety parameters of IDegLira and IDeg after 26 weeks of treatment. All trial endpoints were collected and assessed throughout the entire duration of the trial.
(§3) Eligible subjects were randomised 1:1 to either once daily IDegLira or once daily IDeg, both in combination with metformin. […] For each subject, the duration of the trial was to be approximately 29 weeks: up to 2 weeks between screening and first treatment, 26 weeks of treatment and at least 1 week of wash-out at the end of the trial.
(§4) The IDegLira dosing unit is defined as a dose step. One (1) IDegLira dose step consists of 1 unit insulin degludec and 0.036 mg liraglutide. Treatment with IDegLira was initiated at 16 dose steps containing 16 units insulin degludec and 0.6 mg liraglutide. Adjustment of the IDegLira dose was performed twice weekly based on the mean of 3 preceding daily fasting SMPG values on 3 consecutive days. Adjustments occurred in 2 dose steps aiming at a fasting glycaemic target of 4.0-5.0 mmol/L (72-90 mg/dL). The maximum allowed dose was 50 dose steps (50 units IDeg/1.8 mg liraglutide). IDeg treatment was initiated with 16 units, and titrated twice weekly to the fasting glycaemic target of 4.0-5.0 mmol/L (72-90 mg/dL) based on the mean fasting SMPG from 3 proceeding measurements as described for IDegLira. The maximum allowed dose was 50 units.
(§5) Subjects received IDegLira or IDeg by subcutaneous administration in addition to metformin. IDegLira or IDeg was injected subcutaneously in the thigh, upper arm (deltoid region) or abdomen once daily preferably at the same time every day. The injection area chosen were to remain unchanged throughout the trial, but rotation within the area was recommended.

[4] = system: human subjects with type 2 diabetes inadequately controlled with basal insulin and metformin; conditions: in vivo
Protocol: as §2, §3, §4, §5

## N^εB29-(N^α-(HOOC(CH2)14CO)-γ-Glu) desB30 human insulin [IDeg]
[1]
  Systolic Blood Pressure variability, Rate: 0.94
[1]; relative fluctuation of 8-point profile, log scale ANOVA
  8PP SMPG - Within-day variability, Rate: 0.98
[1]; variances analysed on log scale, ANOVA
  Pre-breakfast SMPG - between-day variability, Rate: 0.90
[2]; CV risk score High
  HR (MACE, IDeg/IGlar): 1.04
[2]; CV risk score Low
  HR (MACE, IDeg/IGlar): 1.02
[2]; CV risk score Moderate
  HR (MACE, IDeg/IGlar): 0.89
[2]; CV risk score Very High
  HR (MACE, IDeg/IGlar): 0.67
[2]; patients who have a high CV risk score
  hazard ratio IDeg/IGlar (risk of MACE): < 1
[2]; subgroup: Age 65-75 years AND systolic blood pressure < 140 mmHg
  Estimate (risk of MACE, IDeg compared to IGlar): 0.70
[2]; subgroup: Age < 65 years AND diastolic blood pressure ≥ 80 mmHg
  Estimate (risk of MACE, IDeg compared to IGlar): 0.64
[2]; subgroup: Age < 65 years AND treated with statins
  Estimate (risk of MACE, IDeg compared to IGlar): 0.75
[2]; subgroup: BMI ≥ 30 kg/m^2 AND diastolic blood pressure ≥ 80 mmHg
  Estimate (risk of MACE, IDeg compared to IGlar): 0.68
[2]; subgroup: Diastolic blood pressure < 90 mmHg AND HDL ≥ 1.0 mmol/L
  Estimate (risk of MACE, IDeg compared to IGlar): 0.80
[2]; subgroup: Diastolic blood pressure ≥ 80 mmHg AND treated with statins
  Estimate (risk of MACE, IDeg compared to IGlar): 0.73
[2]; subgroup: Diastolic blood pressure ≥ 80 mmHg AND triglycerides > 1.7 mmol/L
  Estimate (risk of MACE, IDeg compared to IGlar): 0.69
[2]; subgroup: Established CV risk AND HDL ≥ 1.0 mmol/L
  Estimate (risk of MACE, IDeg compared to IGlar): 0.78
[2]; subgroup: Established CV risk AND diastolic blood pressure ≥ 80 mmHg
  Estimate (risk of MACE, IDeg compared to IGlar): 0.76
[2]; subgroup: Established CV risk AND pulse ≥ 70 bpm
  Estimate (risk of MACE, IDeg compared to IGlar): 0.80
[2]; subgroup: Height <170 cm AND treated with statins
  Estimate (risk of MACE, IDeg compared to IGlar): 0.75
[2]; subgroup: Non-White AND diastolic blood pressure < 90 mmHg
  Estimate (risk of MACE, IDeg compared to IGlar): 0.64
[2]; subgroup: Not Hispanic or Latino AND Non-White
  Estimate (risk of MACE, IDeg compared to IGlar): 0.64
[2]; subgroup: Not Hispanic or Latino AND triglycerides > 1.7 mmol/L
  Estimate (risk of MACE, IDeg compared to IGlar): 0.79
[2]; subgroup: Previous smoker AND age < 65 years
  Estimate (risk of MACE, IDeg compared to IGlar): 0.73
[2]; subgroup: Previous smoker AND cholesterol ≥ 3 mmol/L
  Estimate (risk of MACE, IDeg compared to IGlar): 0.79
[2]; subgroup: Previous smoker AND diastolic blood pressure ≥ 80 mmHg
  Estimate (risk of MACE, IDeg compared to IGlar): 0.66
[2]; subgroup: Previous smoker AND treated with statins
  Estimate (risk of MACE, IDeg compared to IGlar): 0.79
[2]; subgroup: Previous smoker AND triglycerides > 1.7 mmol/L
  Estimate (risk of MACE, IDeg compared to IGlar): 0.73
[2]; subgroup: Pulse ≥ 70 bpm AND diastolic blood pressure ≥ 80 mmHg
  Estimate (risk of MACE, IDeg compared to IGlar): 0.74
[2]; subgroup: Pulse ≥ 70 bpm AND triglycerides > 1.7 mmol/L
  Estimate (risk of MACE, IDeg compared to IGlar): 0.76
[2]; subgroup: Pulse ≥ 70 mmHg AND treated with statins
  Estimate (risk of MACE, IDeg compared to IGlar): 0.72
[2]; subgroup: Systolic blood pressure <140 mmHg AND HDL ≥ 1.0 mmol/L
  Estimate (risk of MACE, IDeg compared to IGlar): 0.73
[2]; subgroup: Triglycerides > 1.7 mmol/L AND HDL ≥ 1.0 mmol/L
  Estimate (risk of MACE, IDeg compared to IGlar): 0.69
[2]; subgroup: Triglycerides > 1.7 mmol/L AND treated with statins
  Estimate (risk of MACE, IDeg compared to IGlar): 0.78
[3]; Baseline
  Free fatty acids: 0.5 mmol/L
  HDL cholesterol: 1.2 mmol/L
  LDL cholesterol: 2.4 mmol/L
  Total cholesterol: 4.6 mmol/L
  Triglycerides: 1.8 mmol/L
  VLDL cholesterol: 0.8 mmol/L
[3]; End of trial (26 weeks)
  Free fatty acids: 0.4 mmol/L
  HDL cholesterol: 1.2 mmol/L
  LDL cholesterol: 2.4 mmol/L
  Total cholesterol: 4.5 mmol/L
  Triglycerides: 1.6 mmol/L
  VLDL cholesterol: 0.7 mmol/L
[3]; change from baseline, 26 weeks
  ΔDiastolic blood pressure: −0.7 mmHG
  ΔSystolic blood pressure: −1.7 mmHG
[4]
  Adverse event and tolerability profiles: consistent with previous findings
  ΔHeart rate: −0.6 bpm
